# Data: patent US5384128A, “Method of and compounds for treatment for cystic fibrosis” (University of Alabama Research Foundation, priority 1993, dated 1995)
# Experiments:
# CFPAC-1 cells = assay: 125I- efflux assay, CFPAC-1 cells; format: cell-based, human
# Text: (§1) The cells employed were (1) T84 cells (ATCC Accession No. CCL 248) (2) CFPAC-1 cells (ATCC Accession No. CRL 1918) (a newly established continuous line of pancreatic duct adenocarcinoma cells from a CF patient which is homozygous for the deletion of phenylalanine in the 508 position of CFTR, the mutation found in 70% of CF patients), (3) clones of CFPAC-1 cells which have been transduced with a retroviral vector (PLJ) containing (PLJ-CFTR-CFPAC) or lacking (PLJ-CFPAC) cDNA for functional CFTR, and (4) 2CFSMEo-, a continuous cell line derived from the tracheal submucosal gland of a CF patient whose exact genotype is unknown but which expresses the phenotype of defective Cl^- channel permeability characteristic of CF.
# (§2) In general, cells were washed with 1 ml of efflux medium (140 mM NaCl, 1 mM Ca gluconate, 1 mM Mg gluconate, 5 mM KH2 PO4, 10 mM Tris-Hepes pH 7.4) four times and incubated with ^125 I- (3μl Na ^125 I=12 μC) in 1 ml of the same medium containing 5 mM D-glucose for 1 hour at 37° C. to load the cells with ^125 I. The cells were then washed quickly five times with 1 ml of the efflux medium at 22° C. to remove any ^125 I- that had not been taken up by the cells. One ml of the efflux medium at 22° C. was then added to initiate efflux and left in contact with the cells for 1 minute, before being removed and replaced with another 1 ml of medium. This replacement procedure was carried out 2-5 times before addition of the appropriate surfactant and/or agonist in 1 ml of the same medium to one culture dish (experimental) while to another dish 1 ml of medium without surfactant and/or agonist was added (control). Medium with or without surfactant and/or agonist was replaced at 0.5 minute intervals until the 10 minute time point when the replacement time was prolonged to 1 minute intervals. The samples of the replacement media were counted in a gamma counter to determine the amount of ^125 I- effluxing from the cells into the medium in each time interval. After 15 minutes when measurement of efflux was completed the cells were extracted for 30 minutes with 1 ml 0.2N NaOH, 0.15% SDS and the extract counted to determine the residual ^125 I- remaining in the cells.
# (§3) The data is expressed as ^125 I- remaining in the cells (set at 100% at the initiation of efflux) and plotted against the time of efflux in minutes and/or as the ln % of ^125 I- remaining in the cells, plotted against the time of efflux in minutes. Expressing the data in the latter form facilitates calculation of the apparent rate constant for ^125 I- efflux using the equation r=[ln (R1)-ln (R2)]/(t1-t2) where R1 and R2 are the percent of counts remaining in the cell layer at times t1 and t2 respectively.
# 2CFSMEo- = assay: 125I- efflux assay, airway epithelial cell line of a CF patient; format: cell-based, human; conditions: 2CFSMEo- cells
# Text: as §1
# as §2, with “This replacement procedure was carried out 2-5 times before addition of the appropriate surfactant and/or agonist in 1 ml of the same medium to one culture dish (experimental) while to another dish 1 ml of medium without surfactant and/or agonist was added (control). Medium with or without surfactant and/or agonist was replaced at 0.5 minute intervals until the 10 minute time point when the replacement time was prolonged to 1 minute intervals.” left out
# (§4) The data is expressed as ^125 I- remaining in the cells (set at 100% at the initiation of efflux) and plotted against the time of efflux in minutes and/or as the ln % of ^125 I- remaining in the cells, plotted against the time of efflux in minutes. […]
# T84 cells [1] = assay: 125I- efflux assay (Cl- channel activity), T84 cells; format: cell-based; conditions: for potency in stimulating 125I- efflux relative to DM: equimolar concentrations
# Text: (§5) Forskolin or cAMP-stimulated Cl^- channel activity is a standard measurement of the activity of Cl^- channels represented by CFTR, while ionomycin or Ca^++ ionophore-stimulated Cl^- channel activity is a measure of the activity of Ca^++ -regulated Cl^- channels which arc different from those represented by CFTR. […] In contrast Ca^++ -regulated Cl^- channels operate normally in CF cells and are opened by ionomycin just as they are in T84 cells.
# as §1, §2, §3
# [2] = Effective dosage (general statement); format: cell-based; conditions: maltoside with alkyl chain of 12, 13 or 14 carbon atoms
# PLJ-CFTR-CFPAC-10 = assay: 125I- efflux assay, CFPAC-1 cells transduced with wild-type CFTR cDNA; format: cell-based, human; conditions: vector containing wild-type CFTR cDNA (PLJ-CFTR-CFPAC-10)
# Text: as §1
# as §2, with “This replacement procedure was carried out 2-5 times before addition of the appropriate surfactant and/or agonist in 1 ml of the same medium to one culture dish (experimental) while to another dish 1 ml of medium without surfactant and/or agonist was added (control). Medium with or without surfactant and/or agonist was replaced at 0.5 minute intervals until the 10 minute time point when the replacement time was prolonged to 1 minute intervals.” left out
# as §4
# PLJ-CFPAC-10 = assay: 125I- efflux assay, CFPAC-1 cells transduced with vector lacking CFTR cDNA; format: cell-based, human
# Text: as §1
# as §2, with “This replacement procedure was carried out 2-5 times before addition of the appropriate surfactant and/or agonist in 1 ml of the same medium to one culture dish (experimental) while to another dish 1 ml of medium without surfactant and/or agonist was added (control). Medium with or without surfactant and/or agonist was replaced at 0.5 minute intervals until the 10 minute time point when the replacement time was prolonged to 1 minute intervals.” left out
# as §4
# T84 cells [3] = conditions: human
# CF cells = assay: 125I- efflux / Cl- channel opening in CF cells; format: cell-based
# Procedure: as §5
# In general, cells were washed with 1 ml of efflux medium (140 mM NaCl, 1 mM Ca gluconate, 1 mM Mg gluconate, 5 mM KH2 PO4, 10 mM Tris-Hepes pH 7.4) four times and incubated with ^125 I- (3μl Na ^125 I=12 μC) in 1 ml of the same medium containing 5 mM D-glucose for 1 hour at 37° C. to load the cells with ^125 I. The cells were then washed quickly five times with 1 ml of the efflux medium at 22° C. to remove any ^125 I- that had not been taken up by the cells. […] The samples of the replacement media were counted in a gamma counter to determine the amount of ^125 I- effluxing from the cells into the medium in each time interval. After 15 minutes when measurement of efflux was completed the cells were extracted for 30 minutes with 1 ml 0.2N NaOH, 0.15% SDS and the extract counted to determine the residual ^125 I- remaining in the cells.
# CFTR in T84 cells = conditions: cited from earlier work
# CFPAC-1 = conditions: CFPAC-1, homozygous ΔF508; cited from earlier work
# T84 cells [4] = conditions: comparison statement; cited from earlier work
compound,measurement,setting,value
"CCCCCCCCCCCCCCO[C@@H]1O[C@H](CO)[C@@H](O[C@@H]2O[C@@H](CO)[C@H](O)[C@@H](O)[C@@H]2O)[C@H](O)[C@H]1O (stereo in doubt) [tetra DM, tetradecylmaltoside]","increase in 125I- efflux, dose dependence",CFPAC-1 cells,dose-dependent increase
same,"stimulation of 125I- efflux, dose dependence",2CFSMEo-,dose-dependent stimulation
same,potency as Cl- channel activator among alkylmaltosides tested,T84 cells [1],most potent
same,cause of 125I- efflux stimulation: cell lysis,T84 cells [1]; T84 cells,not due to lysis of the cells
same,"potency change on lengthening alkyl chain, DM as reference standard",T84 cells [1]; T84 cells,markedly increases the potency
same,"stimulation of 125I- efflux, dose dependence","T84 cells [1]; T84 cells, 10-100 μM",dose-dependent stimulation
same,potency in stimulating 125I- efflux relative to DM,T84 cells [1]; T84 cells,more potent than DM
same,effective dosage,[2],10 to 400 µM
same,Cl- channel activity as measured by increased 125I- efflux,PLJ-CFTR-CFPAC-10,stimulate
same,Cl- channel activity as measured by increased 125I- efflux,PLJ-CFPAC-10,stimulate
"CCCCCCCCCCCCCO[C@@H]1O[C@H](CO)[C@@H](OC2OC(CO)C(O)C(O)C2O)[C@H](O)[C@H]1O (stereo in doubt) [tri DM, tridecylmaltoside]","increase in 125I- efflux, dose dependence",CFPAC-1 cells,dose-dependent increase
same,"stimulation of 125I- efflux, dose dependence",2CFSMEo-,dose-dependent stimulation
same,potency as Cl- channel activator among alkylmaltosides tested,T84 cells [1],most potent
same,cause of 125I- efflux stimulation: cell lysis,T84 cells [1]; T84 cells,not due to lysis of the cells
same,"potency change on lengthening alkyl chain, DM as reference standard",T84 cells [1]; T84 cells,markedly increases the potency
same,"stimulation of 125I- efflux, dose dependence","T84 cells [1]; T84 cells, 10-100 μM",dose-dependent stimulation
same,potency in stimulating 125I- efflux relative to DM,T84 cells [1]; T84 cells,more potent than DM
same,effective dosage,[2],10 to 400 µM
same,Cl- channel activity as measured by increased 125I- efflux,PLJ-CFTR-CFPAC-10,stimulate
same,Cl- channel activity as measured by increased 125I- efflux,PLJ-CFPAC-10,stimulate
"CCCCCCCCCCCCO[C@@H]1O[C@H](CO)[C@@H](O)[C@H](O)[C@H]1O [DG, dodecylglucoside]","activity as Cl- channel activator on altering saccharide moiety, compared to DM at 100 μM",T84 cells [1]; T84 cells,markedly reduces the activity
same,effect in stimulating 125I- efflux,"T84 cells [1]; T84 cells, 100 μM",minimal effect
"CCCCCCCCCCCCO[C@@H]1O[C@H](CO)[C@@H](O[C@H]2O[C@H](CO)[C@@H](O)[C@H](O)[C@H]2O)[C@H](O)[C@H]1O [DM, dodecylmaltoside]",MNTC,T84 cells [3],< 150 µM
same,cause of 125I- efflux stimulation: cell lysis,T84 cells [1]; T84 cells,not due to lysis of the cells
same,reversibility of response upon removal of the agent,T84 cells [1]; T84 cells,reversible
same,"rate of 125I- efflux during exposure, compared to control rate","T84 cells [1]; T84 cells, 100 μM or 200 μM DM",increased rate
same,"rate of 125I- efflux with DM remaining during efflux phase after preincubation, compared to same concentration without preincubation","T84 cells [1]; T84 cells, 100 μM or 200 μM DM",comparable
same,rate of 125I- efflux after removal of agent,"T84 cells [1]; T84 cells, 100 μM or 200 μM DM, after 2 min exposure",reverts to the control rate
same,"stimulation of 125I- efflux, dose dependence","T84 cells [1]; T84 cells, 10-400 μM",dose-dependent stimulation
same,rate of 125I- efflux on further exposure to forskolin in presence of DM,"T84 cells [1]; T84 cells, 80-100 μM DM plus 20 μM forskolin",additional increase
same,effective dosage,[2],10 to 400 µM
same,Cl- channel activity as measured by increased 125I- efflux,PLJ-CFTR-CFPAC-10,stimulate
same,Cl- channel activity as measured by increased 125I- efflux,PLJ-CFPAC-10,stimulate
"C[C@@H]1CC[C@@]2(OC1)O[C@H]1[C@@H](O)[C@H]3[C@@H]4CC[C@H]5C[C@@H](O[C@@H]6O[C@H](CO)[C@H](O[C@@H]7O[C@H](CO)[C@@H](O)[C@H](O[C@@H]8OC[C@@H](O)[C@H](O)[C@H]8O)[C@H]7O[C@@H]7O[C@H](CO)[C@H](O)[C@H](O[C@@H]8O[C@H](CO)[C@@H](O)[C@H](O)[C@H]8O)[C@H]7O)[C@H](O)[C@H]6O)[C@H](O)C[C@]5(C)[C@H]4CC[C@]3(C)[C@H]1[C@@H]2C [Digitonin, digitonin, reference compound]",stimulation of 125I- efflux,"T84 cells [1]; T84 cells, 50 μM",pronounced effect
"C[S+](C)[O-] [Dimethylsulfoxide (DMSO), Dimethylsulfoxide, reference compound]",effect in stimulating 125I- efflux,"T84 cells [1]; T84 cells, 17.6 mM",no effect
"O=C(O)c1cc([N+](=O)[O-])ccc1NCCCc1ccccc1 [NPPB, reference compound]",blocking of Cl- channels,2CFSMEo-,blocked
same,125I- efflux inhibition,"T84 cells [1]; T84 cells, blocker of some Cl- channels",inhibits
C=C[C@@]1(C)CC(=O)[C@]2(O)[C@@]3(C)[C@@H](O)CCC(C)(C)[C@@H]3[C@H](O)[C@H](OC(C)=O)[C@@]2(C)O1 [forskolin],response in 125I- efflux assay,CFPAC-1 cells,unresponsive
same,125I- efflux in response to agonist,CF cells,not stimulated
same,activation of CFTR,CFTR in T84 cells,activate CFTR in T84 cells
same,activation of the Cl- channel,CFPAC-1,inability of the channel to be activated
same,stimulation of 125I- efflux,"T84 cells [1]; T84 cells, 20 μM forskolin",stimulation
"C[C@H](CCC(=O)O)C[C@H](C)C[C@H](C)C(=O)/C=C(\O)[C@H](C)C[C@H](C)C/C=C/[C@@H](C)[C@@H](O)[C@@H](C)[C@@H](O)C[C@@H]1CC[C@@](C)([C@H]2CC[C@@](C)([C@@H](C)O)O2)O1 [ionomycin, reference compound]",response in 125I- efflux assay,CFPAC-1 cells,responds briskly
same,Opening of Ca++-regulated Cl- channels,CF cells,opened
same,stimulation of 125I- efflux,"T84 cells [1]; T84 cells, 1 μM ionomycin",stimulation
CCCCCCCCO[C@@H]1O[C@H](CO)[C@@H](O)[C@H](O)[C@H]1O [octylglucoside],concentration at which an appreciable effect in stimulating 125I- efflux is shown,T84 cells [1]; T84 cells,≥ 500 µM
same,"potency relative to DM, tri DM and tetra DM",T84 cells [1]; T84 cells,"less potent than DM, tri DM and tetra DM"
same,stimulation of 125I- efflux,T84 cells [1]; T84 cells,stimulate
"CCCCCCCCCCCCOS(=O)(=O)[O-].[Na+] [sodium dodecyl sulfate (SDS), sodium dodecyl sulfate]",release upon cell lysis,T84 cells [4],precipitous release
dodecylsucrose [DS],"activity as Cl- channel activator on altering saccharide moiety, compared to DM at 100 μM",T84 cells [1]; T84 cells,markedly reduces the activity
same,"potency relative to DM, tri DM and tetra DM",T84 cells [1]; T84 cells,"less potent than DM, tri DM and tetra DM"
same,stimulation of 125I- efflux,T84 cells [1]; T84 cells,stimulate
same,effect on 125I- efflux relative to DM at 100 μM,"T84 cells [1]; T84 cells, 100 μM",significantly smaller effect than DM
